According to patent US5998433A, “Condensed compounds, their production and use” (Takeda Chemical Industries, Ltd., priority 1994, dated 1999):
Counter-ions that a name gives are not always drawn.

What was measured:
[1] = system: Cholesterogenesis in Rat Liver; experiment: Inhibition of cholesterogenesis in rat liver ([14C] acetic acid incorporation); assay type: in vivo, male Sprague-Dawley rats; conditions: by stomach tube, lower values indicate higher inhibitory activity
Method: Inhibition of Cholesterogenesis in Rat Liver
An aqueous solution of the test drug was administered, by a stomach tube, to male Sprague-Dawley rats at 5 weeks of age; 1 hour later, [^14 C] acetic acid was intravenously administered at a dose of 10 μCi per animal. One hour later, the animals were bled, livers were excised and a portion of liver was treated with a chloroform:methanol mixture to extract lipids. After the lipid fraction was saponified, sterol was extracted with petroleum ether, precipitated using digitonin and the radioactivity in the precipitate fraction was determined using a scintillation counter. The control group orally received 0.5% methyl cellulose solution alone.
The results are shown in Table 3 (lower percent control values indicate higher cholesterol synthesis inhibitory activity).

[2] = system: Aspergillus fumigatus IFO 6344; experiment: Antifungal activity (agar plate dilution method), organism H; assay type: cell-based; conditions: IFO6344, 35° C., 20 hours, pH 7.0
Method: (§1) Determination of Antifungal Activity (Agar Plate Dilution Method)
(§2) RPMI 1640 (Gibco BRL) was dissolved in 0.3 M MOPS buffer, pH 7.0, to obtain a 2-fold dilution; this solution was filtered to remove germ cells (0.45 μm). Separately, 1.4% agar (Wako Pure Chemical Industries) was thermally sterilized (121° C., 15 minutes). This agar was mixed with an equal amount of the above 2-fold diluted RPMI 1640 (0.15 M MOPS, pH 7.0). To 9.9 ml of this RPMI 1640 (0.15 M MOPS, pH 7.0)-0.7% agar medium, 0.1 ml of a 100-fold diluted DMSO solution of the test drug was added; this mixture was prepared as an agar plate in a petri dish 9 cm in diameter. The drug (dissolved in DMSO to 100-fold dilution) was used in a series of 2-fold dilutions of a starting concentration of 64 μg/ml in the agar medium. For drug-free control, an agar medium containing 0.1 ml of DMSO or […] of sterile water was prepared. An inoculum of frozen cells was diluted with physiological saline and spot inoculated onto the agar medium (0.005 ml; 700-15,000 cfu) using a microplanter (Sakuma Seisakusho), followed by cultivation at 35° C. for 20 hours. Antifungal activity was assessed macroscopically; the minimum concentration for complete growth inhibition was expressed as MIC (minimum growth inhibitory concentration).

[3] = system: Candida albicans IFO 0583; experiment: Antifungal activity (agar plate dilution method), organism A; assay type: cell-based; conditions: IFO0583, 35° C., 20 hours, pH 7.0
Method: as §1, §2

[4] = system: Candida glabrata IFO 0622; experiment: Antifungal activity (agar plate dilution method), organism D; assay type: cell-based; conditions: Nakaseomyces glabratus, IFO0622, 35° C., 20 hours, pH 7.0
Method: as §1, §2

[5] = system: Candida krusei IFO 1162; experiment: Antifungal activity (agar plate dilution method), organism F; assay type: cell-based; conditions: Pichia kudriavzevii, IFO1162, 35° C., 20 hours, pH 7.0
Method: as §1, §2

[6] = system: Aspergillus niger IFO 4414; experiment: Antifungal activity (agar plate dilution method), organism I; assay type: cell-based; conditions: IFO4414, 35° C., 20 hours, pH 7.0
Method: as §1, §2

[7] = system: Candida tropicalis IFO 10241; experiment: Antifungal activity (agar plate dilution method), organism C; assay type: cell-based; conditions: IFO10241, 35° C., 20 hours, pH 7.0
Method: as §1, §2

[8] = system: Candida utilis IFO 0619; experiment: Antifungal activity (agar plate dilution method), organism G; assay type: cell-based; conditions: Williopsis jadinii, IFO0619, 35° C., 20 hours, pH 7.0
Method: as §1, §2

[9] = system: Candida krusei IFO 0584; experiment: Antifungal activity (agar plate dilution method), organism E; assay type: cell-based; conditions: Pichia kudriavzevii, IFO0584, 35° C., 20 hours, pH 7.0
Method: as §1, §2

[10] = system: Candida tropicalis IFO 0587; experiment: Antifungal activity (agar plate dilution method), organism B; assay type: cell-based; conditions: IFO0587, 35° C., 20 hours, pH 7.0
Method: as §1, §2

[11] = Plasma HDL-cholesterol-elevating effect in Wistar fatty rats; assay type: in vivo, Female Wistar fatty rats; conditions: for HDL-cholesterol / Total cholesterol / Glucose / Triglyceride / Non-HDL-cholesterol: plasma, 1 week, stomach tube, mean ± standard deviation; for HDL-cholesterol: control 92.4 ± 9.2; for Total cholesterol: control 154 ± 13; for Glucose: control 285 ± 45; for Triglyceride: control 694 ± 192; for Non-HDL-cholesterol: total minus HDL, control 62.0 ± 12.5
Description: Plasma HDL-cholesterol-elevating Effect in Wistar Fatty Rats
Female Wistar fatty rats (19 weeks of age, bred in Experimental Animals Unit, Takeda Chemical Industries, Ltd.) were given a 0.5% methyl-cellulosesolution of compound 31 by a stomach tube for 1 week. Blood was collected via the orbital sinus under non-fasting conditions; plasma total cholesterol and HDL-cholesterol were enzymatically determined using a commercial kit (produced by Wako Pure Chemical Industries, Ltd.). Non-HDL-cholesterol levels were obtained by subtracting HDL-cholesterol from total cholesterol levels. Triglyceride and glucose were also enzymatically determined using commercial kits (both produced by Iatron Laboratories, Inc.).

| SMILES | MIC [2] | MIC [3] | MIC [4] | MIC [5] | MIC [6] | MIC [7] | MIC [8] | MIC [9] | MIC [10] | other results |
| --- | --- | --- | --- | --- | --- | --- | --- | --- | --- | --- |
| CNCc1cc2c(o1)CN(C(=O)CCCCCc1ccccc1)CC2 [Example 38, 1-(2-methylaminomethyl-5,7-dihydro-4H-furo[2,3-c]pyridin-6-yl)-6-phenylhexan-1-one hydrochloride] |  |  |  |  |  |  |  |  |  | Cholesterol synthesis in rat liver, % of control ([1]; 30 mg/kg): 29.9 % Control |
| CN(C)Cc1cc2c(o1)CCN(C(=O)OCCCCc1ccccc1)C2 [Example 48, N,N-dimethyl-[5-(4-phenylbutoxycarbonyl)-4,5,6,7-tetrahydrofuro[3,2-c]pyridin-2-ylmethyl]amine hydrochloride] | 32 µg/mL | 16 µg/mL | 32 µg/mL | 16 µg/mL | 16 µg/mL | 64 µg/mL | 2 µg/mL | 8 µg/mL | 8 µg/mL |  |
| CN(C)Cc1cc2c(o1)CCN(C(=O)CCCCSc1ccccc1)C2 [Example 44, 1-(2-dimethylaminomethyl-6,7-dihydro-4H-furo[3,2-c]pyridin-5-yl)-5-phenylthiopentan-1-one hydrochloride] | 8 µg/mL | 16 µg/mL | 32 µg/mL | 16 µg/mL | 8 µg/mL | 8 µg/mL | 4 µg/mL | 8 µg/mL | 8 µg/mL |  |
| CN(C)Cc1cc2c(o1)CN(C(=O)CCCCCc1ccc(F)cc1)CC2 [Example 27, 1-(2-dimethylaminomethyl-5,7-dihydro-4H-furo[2,3-c]pyridin-6-yl)-6-(4-fluorophenyl)hexan-1-one hydrochloride] | 2 µg/mL | 16 µg/mL | 16 µg/mL | 8 µg/mL | 2 µg/mL | 64 µg/mL | 2 µg/mL | 4 µg/mL | 32 µg/mL |  |
| CN(C)Cc1cc2c(o1)CCN(C(=O)CCCCCc1ccc(F)cc1)C2 [Example 28, 1-(2-dimethylaminomethyl-6,7-dihydro-4H-furo[3,2-c]pyridin-5-yl)-6-(4-fluorophenyl)hexan-1-one hydrochloride] | 4 µg/mL | 8 µg/mL | 16 µg/mL | 8 µg/mL | 4 µg/mL | 32 µg/mL | 2 µg/mL | 4 µg/mL | 2 µg/mL |  |
| CN(C)Cc1cc2c(o1)CCN(S(=O)(=O)CCCCCc1ccccc1)C2 [Example 53, N,N-dimethyl-[5-(5-phenylpentylsulfonyl)-4,5,6,7-tetrahydrofuro[3,2-c]pyridin-2-ylmethyl]amine hydrochloride] |  |  |  |  |  |  |  |  |  | Cholesterol synthesis in rat liver, % of control ([1]; 10 mg/kg): 42.3 % Control |
| CN(C)Cc1cc2c(o1)CCN(C(=O)CCCCCc1ccccc1)C2 [Example 6, 1-(2-dimethylaminomethyl-6,7-dihydro-4H-furo[3,2-c]pyridin-5-yl)-6-phenylhexan-1-one hydrochloride] | 16 µg/mL | 16 µg/mL | 32 µg/mL | 16 µg/mL | 8 µg/mL | 16 µg/mL | 2 µg/mL | 4 µg/mL | 2 µg/mL |  |
| CCN(CC)Cc1cc2c(o1)CN(C(=O)c1ccc(C(=O)c3ccccc3)cc1)CC2 [Example 39, N,N-diethyl-[6-(4-benzoylbenzoyl)-4,5,6,7-tetrahydrofuro[2,3-c]pyridin-2-ylmethyl]amine hydrochloride] |  |  |  |  |  |  |  |  |  | Cholesterol synthesis in rat liver, % of control ([1]; 3.0 mg/kg): 64.6 % Control |

Second part, led by results:

| MIC [2] | MIC [3] | MIC [4] | MIC [5] | MIC [6] | MIC [7] | MIC [8] | MIC [9] | MIC [10] | SMILES | other results |
| --- | --- | --- | --- | --- | --- | --- | --- | --- | --- | --- |
| 1 µg/mL | 2 µg/mL | 4 µg/mL | 2 µg/mL | 1 µg/mL | 2 µg/mL | 1 µg/mL | 1 µg/mL | 2 µg/mL | CCCCCCCc1ccc(C(=O)N2CCc3cc(CN(C)C)oc3C2)cc1 [Example 21, N,N-dimethyl-[6-(4-heptylbenzoyl)-4,5,6,7-tetrahydrofuro[2,3-c]pyridin-2-ylmethyl]amine hydrochloride] |  |
| 0.5 µg/mL | 32 µg/mL | 16 µg/mL | 16 µg/mL | 0.25 µg/mL | 64 µg/mL | 4 µg/mL | 8 µg/mL | 16 µg/mL | CN(C)Cc1cc2c(o1)CN(C(=O)c1ccc(/C=C\c3ccccc3)cc1)CC2 [Example 33, (Z)-N,N-dimethyl-[6-(4-stilbenecarbonyl)-4,5,6,7-tetrahydrofuro[2,3-c]pyridin-2-ylmethyl]amine hydrochloride] |  |
| 8 µg/mL | 8 µg/mL | 16 µg/mL | 16 µg/mL | 4 µg/mL | 8 µg/mL | 2 µg/mL | 16 µg/mL | 2 µg/mL | CN(C)Cc1cc2c(o1)CN(C(=O)CCCCSc1ccccc1)CC2 [Example 43, 1-(2-dimethylaminomethyl-5,7-dihydro-4H-furo[2,3-c]pyridin-6-yl)-5-phenylthiopentan-1-one hydrochloride] |  |
| 0.5 µg/mL | 8 µg/mL | 64 µg/mL | 32 µg/mL | 0.5 µg/mL | 16 µg/mL | 4 µg/mL | 16 µg/mL | 2 µg/mL | CN(C)Cc1cc2c(o1)CN(C(=O)c1ccc(C(=O)c3ccc(Cl)cc3)cc1)CC2 [Example 31, N,N-dimethyl-[6-[4-(4-chlorobenzoyl)benzoyl]-4,5,6,7-tetrahydrofuro[2,3-c]pyridin-2-ylmethyl]amine hydrochloride] | Plasma HDL-cholesterol level ([11]; in words, Wistar fatty rats): increased significantly, depending on dose; Plasma glucose level ([11]; in words, Wistar fatty rats): not affected; Plasma non-HDL-cholesterol level ([11]; in words, Wistar fatty rats): not affected; Plasma total cholesterol level ([11]; in words, Wistar fatty rats): increased significantly, depending on dose; Plasma triglyceride level ([11]; in words, Wistar fatty rats): not affected; HDL-cholesterol ([11]; 0.1 mg/kg-day, p<0.05): 113 ± 15.4 mg/dL; Total cholesterol ([11]; 0.1 mg/kg-day): 175 ± 21 mg/dL; Glucose ([11]; 0.1 mg/kg-day): 251 ± 72 mg/dL; Triglyceride ([11]; 0.1 mg/kg-day): 599 ± 195 mg/dL; Non-HDL-cholesterol ([11]; 0.1 mg/kg-day): 62.5 ± 7.9 mg/dL; HDL-cholesterol ([11]; 0.3 mg/kg-day, p<0.05): 135 mg/dL; Total cholesterol ([11]; 0.3 mg/kg-day, p<0.05): 192 ± 24 mg/dL; Glucose ([11]; 0.3 mg/kg-day): 242 ± 39 mg/dL; Triglyceride ([11]; 0.3 mg/kg-day): 538 ± 155 mg/dL; Non-HDL-cholesterol ([11]; 0.3 mg/kg-day): 57.1 ± 10.7 mg/dL |
| 2 µg/mL | 16 µg/mL | 32 µg/mL | 32 µg/mL | 2 µg/mL | 32 µg/mL | 8 µg/mL | 32 µg/mL | 8 µg/mL | CN(C)Cc1cc2c(o1)CCN(C(=O)c1ccc(C(=O)c3ccc(Cl)cc3)cc1)C2 [Example 32, N,N-dimethyl-[5-[4-(4-chlorobenzoyl)benzoyl]-4,5,6,7-tetrahydrofuro[3,2-c]pyridin-2-ylmethyl]amine hydrochloride] |  |
